# Values joined by “and” are separate entries in the source; they are usually repeats but may differ in a detail not shown here. Equal values may be shown once. Read-outs that look alike come from different tables or passages of the source.
# Legend:
# [1] = Long-term (1 month at −20° C. and −80° C.) stability in untreated human saliva; details: nominal 80.0 ng/mL; for Concentration after long-term storage / Mean concentration after long-term storage: 1 Month; for Concentration after long-term storage / Mean concentration after long-term storage / % Bias / Difference from Fresh (%) / Fresh QCs (Batch 34) Mean at Time Zero: QC-High; for Concentration after long-term storage: individual values, run 35; for Mean concentration after long-term storage / Mean concentration QC-High: n 3; for % Bias / Difference from Fresh (%) / % Bias QC-High / % CV QC-High / Difference from Fresh (%) QC-High / Mean concentration QC-High / Concentration QC-High: 1 month; for Fresh QCs (Batch 34) Mean at Time Zero, QC-High / Concentration QC-High: untreated human saliva; for Concentration QC-High: Run 35, replicate
# Protocol: For long-term stability in untreated human saliva, samples were prepared by spiking untreated human saliva with each analyte at the QC-Low and QC-High levels. The samples were stored in a −20° C. freezer and in a −80° C. freezer. After 1 month of storage, each sample was extracted in replicates of three for analysis.
# A 100-μL aliquot of sample (calibration standards, quality controls, blanks, and stability samples) was transferred into a 96 well plate, according to a pre-defined layout. […] The plates were covered, vortex-mixed and then centrifuged for 5 minutes at 3200 rpm. Supernatants (350 μL each) were transferred into the corresponding wells of a clean 96 well plate and evaporated to dryness under nitrogen in a Turbovap set to 40° C. The dried residue in each well was reconstituted with 75 μL of 50:50 (v:v) methanol:water.
# [2] = Frozen (−20° C.) short-term stability in cholestyramine-treated human saliva; details: for Mean concentration after frozen (−20° C.) storage / Mean concentration QC-LLOQ / Mean concentration QC-Mid / Mean concentration QC-High: n 4; for Concentration QC-LLOQ / Concentration QC-Mid / Concentration QC-High: Run 33, cholestyramine-treated human saliva, replicate
# Protocol: Quality control samples for the evaluation of accuracy and precision and for run acceptance were prepared on the day of sample extraction. QC samples prepared in cholestyramine-treated saliva are to be prepared in small volumes for analysis. Stability for these QC samples would be limited to short-term storage (i.e., 2 days) whereas untreated human saliva would be evaluated for long-term storage.
# For stability in cholestyramine-treated human saliva, samples were prepared by spiking cholestyramine-treated human saliva with each analyte at the QC-LLOQ, QC-Low, QC-Mid and QC-High levels. The samples were stored in a −20° C. freezer. After 1 day and 2 days of storage, each sample was extracted in replicates of four for analysis.
# [3] = nominal 0.500 ng/mL, 1 Day at −20° C.
# [4] = nominal 0.500 ng/mL, 2 Days at −20° C.
# [5] = nominal 8.00 ng/mL, 1 Day at −20° C.
# [6] = nominal 8.00 ng/mL, 2 Days at −20° C.
# [7] = nominal 80.0 ng/mL, 1 Day at −20° C.
# [8] = nominal 80.0 ng/mL, 2 Days at −20° C.
smiles,measurement,setting,value
"C[C@H](CCC(=O)O)[C@H]1CC[C@H]2[C@@H]3[C@H](O)C[C@@H]4C[C@H](O)CC[C@]4(C)[C@H]3C[C@H](O)[C@]12C [Cholic Acid, Cholic acid]",Concentration after long-term storage,[1]; −20° C. Storage,72.6 ng/mL and 76.7 ng/mL and 76.0 ng/mL
same,Mean concentration after long-term storage,[1]; −20° C. Storage,75.1 ng/mL
same,Concentration after long-term storage,[1]; −80° C. Storage,79.6 ng/mL and 77.9 ng/mL and 77.2 ng/mL
same,Mean concentration after long-term storage,[1]; −80° C. Storage,78.2 ng/mL
same,% Bias,[1]; −20° C. Storage,−6.1%
same,Difference from Fresh (%),[1]; −20° C. Storage,−6.1%
same,% Bias,[1]; −80° C. Storage,−2.2%
same,Difference from Fresh (%),[1]; −80° C. Storage,−2.2%
same,Fresh QCs (Batch 34) Mean at Time Zero,[1]; reference for −20° C. Storage,80.0 ng/mL
same,Fresh QCs (Batch 34) Mean at Time Zero,[1]; reference for −80° C. Storage,80.0 ng/mL
same,% Bias,"[2]; Storage period 1 Day at −20° C., QC-High, nominal 80.0 ng/mL",−6.7%
same,% Bias,"[2]; Storage period 1 Day at −20° C., QC-LLOQ, nominal 0.500 ng/mL",−0.9%
same,% Bias,"[2]; Storage period 1 Day at −20° C., QC-Mid, nominal 8.00 ng/mL",−5.9%
same,Mean concentration after frozen (−20° C.) storage,"[2]; Storage period 1 Day, QC-High, nominal 80.0 ng/mL",74.7 ng/mL
same,Mean concentration after frozen (−20° C.) storage,"[2]; Storage period 1 Day, QC-LLOQ, nominal 0.500 ng/mL",0.496 ng/mL
same,Mean concentration after frozen (−20° C.) storage,"[2]; Storage period 1 Day, QC-Mid, nominal 8.00 ng/mL",7.53 ng/mL
same,% Bias,"[2]; Storage period 2 Days at −20° C., QC-High, nominal 80.0 ng/mL",−6.2%
same,% Bias,"[2]; Storage period 2 Days at −20° C., QC-LLOQ, nominal 0.500 ng/mL",12.1%
same,% Bias,"[2]; Storage period 2 Days at −20° C., QC-Mid, nominal 8.00 ng/mL",−3.6%
same,Mean concentration after frozen (−20° C.) storage,"[2]; Storage period 2 Days, QC-High, nominal 80.0 ng/mL",75.1 ng/mL
same,Mean concentration after frozen (−20° C.) storage,"[2]; Storage period 2 Days, QC-LLOQ, nominal 0.500 ng/mL",0.561 ng/mL
same,Mean concentration after frozen (−20° C.) storage,"[2]; Storage period 2 Days, QC-Mid, nominal 8.00 ng/mL",7.72 ng/mL
"C[C@H](CCC(=O)NCCS(=O)(=O)O)[C@H]1CC[C@H]2[C@@H]3[C@H](O)C[C@@H]4C[C@H](O)CC[C@]4(C)[C@H]3CC[C@]12C [Taurochenodeoxycholic Acid, Taurochenodeoxycholic acid]","Fresh QCs (Batch 34) Mean at Time Zero, QC-High",[1]; reference for −20° C. Storage,84.5 ng/mL
same,"Fresh QCs (Batch 34) Mean at Time Zero, QC-High",[1]; reference for −80° C. Storage,84.5 ng/mL
same,% Bias QC-High,[1]; −20° C. Storage,1.0%
same,% CV QC-High,[1]; −20° C. Storage,2.5%
same,Difference from Fresh (%) QC-High,[1]; −20° C. Storage,−4.3%
same,Mean concentration QC-High,[1]; −20° C. Storage,80.8 ng/mL
same,Concentration QC-High,[1]; −20° C. Storage,79.1 ng/mL and 83.0 ng/mL and 80.4 ng/mL
same,% Bias QC-High,[1]; −80° C. Storage,1.0%
same,% CV QC-High,[1]; −80° C. Storage,4.7%
same,Difference from Fresh (%) QC-High,[1]; −80° C. Storage,−4.3%
same,Mean concentration QC-High,[1]; −80° C. Storage,80.8 ng/mL
same,Concentration QC-High,[1]; −80° C. Storage,84.4 ng/mL and 81.2 ng/mL and 76.9 ng/mL
same,Short-term stability in cholestyramine-treated human saliva,[2],up to 2 days
same,Stability in Treated Human Saliva,[2],2 days
same,% Bias QC-LLOQ,[2]; [3],7.1%
same,% CV QC-LLOQ,[2]; [3],2.2%
same,Concentration QC-LLOQ,[2]; [3],0.529 ng/mL and 0.542 ng/mL and 0.522 ng/mL and 0.548 ng/mL
same,Mean concentration QC-LLOQ,[2]; [3],0.535 ng/mL
same,% Bias QC-LLOQ,[2]; [4],19.6%
same,% CV QC-LLOQ,[2]; [4],4.1%
same,Concentration QC-LLOQ,[2]; [4],0.608 ng/mL and 0.589 ng/mL and 0.569 ng/mL and 0.626 ng/mL
same,Mean concentration QC-LLOQ,[2]; [4],0.598 ng/mL
same,% Bias QC-Mid,[2]; [5],−5.4%
same,% CV QC-Mid,[2]; [5],0.9%
same,Concentration QC-Mid,[2]; [5],7.59 ng/mL and 7.63 ng/mL and 7.58 ng/mL and 7.47 ng/mL
same,Mean concentration QC-Mid,[2]; [5],7.57 ng/mL
same,% Bias QC-Mid,[2]; [6],−1.8%
same,% CV QC-Mid,[2]; [6],4.0%
same,Concentration QC-Mid,[2]; [6],7.42 ng/mL and 8.04 ng/mL and 8.12 ng/mL and 7.83 ng/mL
same,Mean concentration QC-Mid,[2]; [6],7.85 ng/mL
same,% Bias QC-High,[2]; [7],−3.3%
same,% CV QC-High,[2]; [7],2.9%
same,Concentration QC-High,[2]; [7],78.3 ng/mL and 79.8 ng/mL and 74.6 ng/mL and 76.6 ng/mL
same,Mean concentration QC-High,[2]; [7],77.3 ng/mL
same,% Bias QC-High,[2]; [8],−3.8%
same,% CV QC-High,[2]; [8],3.9%
same,Concentration QC-High,[2]; [8],74.4 ng/mL and 78.6 ng/mL and 74.5 ng/mL and 80.3 ng/mL
same,Mean concentration QC-High,[2]; [8],77.0 ng/mL
"C[C@H](CCC(=O)O)[C@H]1CC[C@H]2[C@@H]3CC[C@@H]4C[C@H](O)CC[C@]4(C)[C@H]3CC[C@]12C [Lithocholic Acid, Lithocholic acid]",Short-term stability in cholestyramine-treated human saliva,[2]; human,up to 2 days
same,Stability in Treated Human Saliva,[2]; human,2 days
